One experiment concerns arterial ring. Briefly: Tests for in vitro vasodilatation (arterial rings contracted with 1 μM Norepinephrine). Format: cell-based. Particulars: for EC50: vasodilatation of 50% of arterial ring previously contracted with 1 μM Norepinephrine, 6 to 9 rings, read-out: CE50 (average ± SD), vasodilatation. As to the method:
Tests for In Vitro Vasodilatation. The method used in the assays is substantially the same as described in the following references: Furchgot, R. F. “Methods in nitric oxide research”. Feelisch & Stamler eds. John Wiley &Sons, Chichester, England, pp 567-581. Trongvanichnam, K, et al. Jpn J. […]., et al. Eur. J. Pharmacol. 1994; 258:47-55. The compounds are tested at 5 different concentrations, at a concentration range from 0,001 y 10 mM, using from 6 to 9 arterial rings for each compound. The obtained results are compared to those from the S-nitrosoglutathione (GSNO), which is used as reference product.

The next experiment concerns platelets. Briefly: Tests in vitro of the inhibition of the aggregation of the platelets (collagen 1 μg/mL). It is filed as cell-based, human. Particulars: for IC50: aggregation obtained with sub-maximal collagen concentration (1 μg/mL), read-out: IC50 (average ± SD), inhibition of the aggregation of the platelets; for inhibiting activity on platelets aggregation compared to the reference compound (GSNO): in words. From the text: Tests In Vitro of the Inhibition of the Aggregation of the Platelets. The method used in the assays is substantially the same as described in following references: Loscalzo J, et al. En: Methods in nitric oxide research (Feelisch M, Stamler JS, eds.) John Wiley & Sons, Chichester, England, pp 583-591. Radomski MW, et al. Br J Pharmacol 1987;92:181-187. […], et al. Br J Pharmacol 1994;112:1071-1076. […] The obtained results are compared to those from the S-nitrosoglutathione (GSNO), which is used as reference product.

The test system of a further experiment is human washed platelets. Briefly: Tests in vitro of the increase of the intra-platelet levels of GMPc. Format: cell-based. Particulars: for GMPc intra-platelet level: human washed platelets. From the text: Tests In Vitro of the Increase of the Intra-platelet Levels of GMPc. […] The method used in the test is substantially the same as described in the references cited in example 8. […] The obtained results are compared to those from the GSNO (reference product) and with the basal values.

Experiment [1] concerns human washed platelet preparations. Briefly: Test in vitro of the blockage of platelet aggregation inhibition by ODQ. It is filed as cell-based. As to conditions: for blocking of the inhibiting effect by ODQ: IC50 dose of the compounds; for inhibition at 0.1 µM / inhibition at 0.3 µM / inhibition at 1 µM: Homo sapiens, Platelet; for inhibition at 1 µM: 1 μM compound. As to the method: Test In Vitro of the Blockage of Platelet Aggregation Inhibition. The method used in the test is substantially the same as described in the references cited in example 8, completed with the reference: Moro MA, et al. Pr Nat Acad Sc USA. 1996 ;93:1480-5. The ODQ is tested in vitro to block the inhibition of platelet aggregation reached by the obtained products in human washed platelet preparations. […] The obtained results are compared to those from the GSNO (reference product) and with the values in absence of ODQ.

Read-outs that look alike come from different tables or passages of the source.

One may read the IC50 as the midpoint of a concentration-inhibition curve. `CC(=O)NC(C(=O)O)C1(SN=O)CCN(C)CC1` (stereo not drawn) [Product obtained in example 2, N-acetyl-2-amino-2-[4-(4-S-nitro-somercapto-1-methylpiperidin)] Acetic Acid]: in the experiment with arterial ring (in words), the “vasodilating activity compared to the reference compound (GSNO)” value was “highly superior to that of the reference product”. Moreover, the EC50 with arterial ring came out at 24 ± 3 nM. Besides, the 50% inhibitory concentration (IC50) with platelets was 190 ± 20 nM.

On to `CC(=O)NC(C(=O)O)C1(SN=O)CCOCC1` (stereo not drawn) [Product obtained in example 1, N-acetyl-2-amino-2-[4-(4-S-Nitro-somercaptotetrahydropyran) ] Acetic Acid], for which the EC50 with arterial ring was 375 ± 50 nM. In addition, in the experiment with platelets, the IC50 was 70 ± 20 nM and the “inhibiting activity on platelets aggregation compared to the reference compound (GSNO)” value is recorded as “highly superior to that of the reference product”.

Regarding `N[C@@H](CCC(=O)NC(C(=O)NCC(=O)O)C(Cc1ccccc1)(Cc1ccccc1)SN=O)C(=O)O` (stereo partly drawn) [Product obtained in example 6, N[N-γ-L-glutamyl-2-amino-3-benzyl-3-(S-nitrosomercapto)-4-phenylbutanoyl] glycine], the IC50 in the experiment with platelets was 350 ± 110 nM.

With `CC(=O)NC(C(=O)O)C(Cc1ccccc1)(Cc1ccccc1)SN=O` (stereo not drawn) [Product obtained in example 3, N-acetyl-2-amino-3-benzyl-3-S-ni-trosomercapto-4-phenyl-butanoic Acid], the EC50 in the experiment on arterial ring turned out to be 630 ± 210 nM. In the experiment with platelets, the concentration for half-maximal inhibition (IC50) stood at 240 ± 27 nM.

Consider “N[N-γ-L-glutamyl-2-amino-2-(4-(4—S—nitrosomercapto)tetrahydropyran)) acetyl]glycine [Product obtained in example 4]”, for which the EC50 in the experiment with arterial ring is 1730 ± 270 nM. For the same compound, the IC50 with platelets was 200 ± 120 nM.

In the case of “N[N-γ-L-glutamyl-2-amino-2-(4-(4-S-nitrosomercapto-1-methyl-piperidin))acetyl ] glycine [Product obtained in example 5]”, the EC50 in the experiment with arterial ring turned out to be 1890 ± 820 nM. For the same compound, in the experiment on platelets, the half-maximal inhibitory concentration (IC50) was found to be 47 ± 11 nM. Moreover, in the experiment on platelets, the “inhibiting activity on platelets aggregation compared to the reference compound (GSNO)” value is “highly superior to that of the reference product”. The GMPc intra-platelet level with human washed platelets (0.03 μM compound) turned out to be 1.60 ± 0.5 pmol/10^9 platelets; in the experiment with human washed platelets (0.1 μM compound) it was 1.50 ± 0.4 pmol/10^9 platelets; in the experiment with human washed platelets (0.3 μM compound) it was 6.50 ± 0.5 pmol/10^9 platelets; with human washed platelets (1 μM compound), 21.1 ± 0.5 pmol/10^9 platelets. Further, in the experiment with human washed platelets (in words), the “increase of intra-platelet levels of GMPc compared to GSNO” value is on record as “in a similar manner to that of the GSNO reference”. In addition, the “levels of GMPc at concentrations close to the IC50, compared to GSNO” value with human washed platelets (values close to the IC50, in words) is “lower as that of the GSNO”. Further, the “% inhibition with ODQ” value in experiment [1] (0.003 μM compound, ODQ 1 μM) is reported as 0%; in experiment [1] (0.01 μM compound, ODQ 1 μM) it was 0%; in experiment [1] (0.03 μM compound, ODQ 1 μM), 0%; in experiment [1] (0.1 μM compound, ODQ 1 μM) it was 0%; in experiment [1] (0.3 μM compound, ODQ 1 μM), 0%. For the same compound, the “% inhibition without ODQ” value in experiment [1] (0.003 μM compound, inhibition of the maximum aggregation) is recorded as 0%; in experiment [1] (0.01 μM compound, inhibition of the maximum aggregation), 17%; in experiment [1] (0.03 μM compound, inhibition of the maximum aggregation), 83 ± 1.4%; in experiment [1] (0.1 μM compound, inhibition of the maximum aggregation), 96%; in experiment [1] (0.3 μM compound, inhibition of the maximum aggregation) it was 96%. The “blocking of the inhibiting effect by ODQ” value in experiment [1] (ODQ 1 μM, in words) is “capable of blocking the inhibiting effect”. Moreover, the “blocking of the inhibition of aggregation by ODQ compared to the reference product” value in experiment [1] (ODQ 1 μM, at higher doses to that of the IC50, in words) is given as “better blocked”.

Usually inhibition stands for the relative decrease from the control value, in per cent. For `N[C@@H](CCC(=O)N[C@@H](CSN=O)C(=O)NCC(=O)O)C(=O)O` [GSNO, S-nitrosoglutathione, reference compound], the EC50 with arterial ring amounted to 1560 ± 550 nM. Moreover, the IC50 in the experiment with platelets (Homo sapiens, Platelet) stood at 480 ± 190 nM. The GMPc intra-platelet level with human washed platelets (0.1 μM compound) was 1 ± 0.5 pmol/10^9 platelets; with human washed platelets (0.3 μM compound) it was 6.6 ± 0.6 pmol/10^9 platelets; with human washed platelets (1 μM compound), 24 ± 0.5 pmol/10^9 platelets; with human washed platelets (3 μM compound), 27.6 ± 6.0 pmol/10^9 platelets. The inhibition at 0.1 µM turned out to be 0% in experiment [1] (0.1 μM compound, ODQ 1 μM, read-out: % inhibition with ODQ) and 34.2 ± 25% in experiment [1] (0.1 μM compound, inhibition of the maximum aggregation, read-out: % inhibition without ODQ). Moreover, the inhibition at 0.3 µM in experiment [1] (0.3 μM compound, ODQ 1 μM, read-out: % inhibition with ODQ) amounted to 3.3 ± 3%; in experiment [1] (0.3 μM compound, inhibition of the maximum aggregation, read-out: % inhibition without ODQ) it was 79.3 ± 17%. Besides, the inhibition at 1 µM worked out at 32.6 ± 0.9% in experiment [1] (ODQ 1 μM, read-out: % inhibition with ODQ) and 92.65 ± 0.9% in experiment [1] (inhibition of the maximum aggregation, read-out: % inhibition without ODQ). Besides, the “blocking of the inhibiting effect by ODQ” value in experiment [1] (ODQ 1 μM, in words) was “capable of blocking the inhibiting effect”.

(Values after patent US6800612B2, “S-nitrosothiols as agents for the treatment of circulatory dysfunctions” (Lacer, S.A., priority 2000, dated 2004).)
